Data: ChEMBL document CHEMBL1201862, “PubChem BioAssay data set” (2004)
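Values below derive from 48-hour exposures of cells grown in 96-well plates, with endpoints linearly interpolated between the two concentrations bracketing the appropriate inhibition level. At the GI50, growth is halved.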 Active and inactive are the calls of the source. No stated cut-off is given here; in the data, active = GI50 up to about 1.1 µM and inactive = higher.

Key:
Assay in all cases: NCI-60 cell line screen, 48 h
[1] = tested on: 786-0
[2] = tested on: CAKI-1
[3] = tested on: DU-145
[4] = tested on: EKVX
[5] = tested on: HL-60
[6] = tested on: KM12
[7] = tested on: Malme-3M
[8] = tested on: OVCAR-3
[9] = tested on: OVCAR-5
[10] = tested on: SF-268
[11] = tested on: SK-MEL-2
[12] = tested on: SN12C
[13] = tested on: SNB-19
[14] = tested on: SNB-75
[15] = tested on: SNB-78
[16] = tested on: TK-10
[17] = tested on: U-251
[18] = tested on: UACC-257
[19] = tested on: Hs-578T
[20] = tested on: MDA-MB-231

In the case of `NC1=C(Cl)C(=O)c2ccccc2C1=O`, the GI50 [1] is reported as 7.4 µM (inactive), the GI50 [2] is reported as 17.3 µM (inactive) and the GI50 [3] is reported as 1.87 µM (inactive). The GI50 [4] was 14.7 µM (inactive), the GI50 [5] was 3.55 µM (inactive) and the GI50 [6] was 8.05 µM (inactive). The GI50 [7] was 1.38 µM (inactive), the GI50 [8] was 2.45 µM (inactive) and the GI50 [9] was 10.3 µM (inactive). The GI50 [10] was 11.2 µM (inactive), the GI50 [11] was 7.08 µM (inactive) and the GI50 [12] was 5.04 µM (inactive). The GI50 [13] was 9.46 µM (inactive), the GI50 [14] was 11.3 µM (inactive) and the GI50 [15] was 25.4 µM (inactive). The GI50 [16] was 22.2 µM (inactive), the GI50 [17] was 4.34 µM (inactive) and the GI50 [18] was 2.57 µM (inactive).
For `CC1(C)C(=O)/C=C\C(=O)C(C)(C)C(=O)/C=C\C(=O)C(C)(C)C2=CC=C(O2)C(C)(C)C(=O)/C=C\C1=O`, the GI50 [1] was 2.24 µM (inactive), the GI50 [2] was 3.84 µM (inactive) and the GI50 [3] was 17.9 µM (inactive). The GI50 [4] was 5.21 µM (inactive), the GI50 [5] was 0.684 µM (active) and the GI50 [19] was 16.9 µM (inactive). For the same compound, the GI50 [6] was 12.7 µM (inactive), the GI50 [7] was 1.91 µM (inactive) and the GI50 [8] was 3.27 µM (inactive). For the same compound, the GI50 [9] was 20.8 µM (inactive), the GI50 [10] was 16.6 µM (inactive) and the GI50 [11] was 12.1 µM (inactive). The GI50 [12] was 5.48 µM (inactive), the GI50 [13] was 16.7 µM (inactive) and the GI50 [15] was 3.71 µM (inactive). For the same compound, the GI50 [16] was 7.6 µM (inactive), the GI50 [17] was 15.7 µM (inactive) and the GI50 [18] was 5.71 µM (inactive).
With `Cc1ccc(C(=O)N2CCN(C(=O)c3ccc(C)cc3)c3ccccc32)cc1` the GI50 [1] was 3.41 µM (inactive), the GI50 [2] was 7 µM (inactive) and the GI50 [3] was 3.35 µM (inactive). The GI50 [4] was 20.2 µM (inactive), the GI50 [5] was 0.767 µM (active) and the GI50 [19] was 2.47 µM (inactive). For the same compound, the GI50 [6] was 3.29 µM (inactive), the GI50 [20] was 23.7 µM (inactive) and the GI50 [7] was 2.84 µM (inactive). For the same compound, the GI50 [8] was 2.74 µM (inactive), the GI50 [9] was > 63.7 µM (inactive) and the GI50 [10] was 6.85 µM (inactive). For the same compound, the GI50 [11] was 1.94 µM (inactive), the GI50 [12] was 6.92 µM (inactive) and the GI50 [13] was 5.77 µM (inactive). For the same compound, the GI50 [14] was 4.68 µM (inactive), the GI50 [15] was 6.97 µM (inactive) and the GI50 [16] was 10 µM (inactive). For the same compound, the GI50 [17] was 1.9 µM (inactive) and the GI50 [18] was 4.56 µM (inactive).
With `COc1ccc2c(c1)Oc1cc(O)ccc1[C@@H]2c1ccccc1C(=O)NC(C)c1ccccc1` (some centres not stated) the GI50 [1] was 13.7 µM (inactive), the GI50 [2] was 20.6 µM (inactive) and the GI50 [4] was 13.3 µM (inactive). The GI50 [5] was 11.3 µM (inactive), the GI50 [6] was 13.4 µM (inactive) and the GI50 [7] was 15 µM (inactive). For the same compound, the GI50 [8] was 15.9 µM (inactive), the GI50 [9] was 16.4 µM (inactive) and the GI50 [10] was 19.1 µM (inactive). The GI50 [11] was 18.7 µM (inactive), the GI50 [12] was 14.6 µM (inactive) and the GI50 [13] was 15.6 µM (inactive). The GI50 [14] was 14.7 µM (inactive), the GI50 [15] was 13.3 µM (inactive) and the GI50 [16] was 23.7 µM (inactive). For the same compound, the GI50 [17] was 15 µM (inactive) and the GI50 [18] was 14.8 µM (inactive).
`COC(=O)C1=C(C[S+]([O-])c2ccc([N+](=O)[O-])cc2[N+](=O)[O-])C2C=CC1C2` (configuration not stated) was tested, and the GI50 [1] was 27.1 µM (inactive), the GI50 [2] was 21.1 µM (inactive) and the GI50 [4] was 23.6 µM (inactive). For the same compound, the GI50 [5] was 16.2 µM (inactive), the GI50 [6] was 40.3 µM (inactive) and the GI50 [7] was 21.4 µM (inactive). The GI50 [8] was 23.1 µM (inactive), the GI50 [9] was > 100 µM (inactive) and the GI50 [10] was 41 µM (inactive). The GI50 [11] was 41.4 µM (inactive), the GI50 [12] was 23.7 µM (inactive) and the GI50 [13] was > 100 µM (inactive). For the same compound, the GI50 [14] was 25.3 µM (inactive), the GI50 [15] was 48.3 µM (inactive) and the GI50 [16] was 23.4 µM (inactive). The GI50 [17] was 20 µM (inactive) and the GI50 [18] was 30.2 µM (inactive).
`CC(=O)NC1=C(Nc2ccc(C)cc2)C(=O)c2ccccc2C1=O` was tested, and the GI50 [1] was 15.4 µM (inactive), the GI50 [2] was 43.7 µM (inactive) and the GI50 [4] was > 75 µM (inactive). For the same compound, the GI50 [5] was 10.2 µM (inactive), the GI50 [6] was 24.7 µM (inactive) and the GI50 [7] was 11.5 µM (inactive). The GI50 [8] was 16.6 µM (inactive), the GI50 [9] was 13.3 µM (inactive) and the GI50 [10] was 26.9 µM (inactive). For the same compound, the GI50 [11] was 21.6 µM (inactive), the GI50 [12] was 15.9 µM (inactive) and the GI50 [13] was 29.3 µM (inactive). The GI50 [14] was 11.6 µM (inactive), the GI50 [15] was 44.9 µM (inactive) and the GI50 [16] was > 75 µM (inactive). For the same compound, the GI50 [17] was 29 µM (inactive) and the GI50 [18] was 18 µM (inactive).
